Assay results: patent US4698352A, “4-oxo-1,4-dihydronicotinic acid derivatives, salts thereof, and antibacterial agents containing the same” (Toyama Chemical Co., Ltd., priority 1982, dated 1987)
In brackets after ≈: the same amount, converted by molar mass. Read-outs that look alike come from different tables or passages of the source.

Key:
Test in all cases: Antibacterial activity (MIC), agar dilution
Assay type in all cases: cell-based
[1] = test system: Ps. aeruginosa GN3379*; settings: Pseudomonas aeruginosa, 20 h; Ps. aeruginosa GN3379, penicillinase-producing; 10^6 cells per ml; read-out: MIC
From the text: (§1) The amount of bacteria inoculated was 10^4 cells per plate (10^6 cells per ml).
(§2) * Penicillinase-producing bacteria

[2] = test system: Kl. pneumoniae Y-4*; settings: Klebsiella pneumoniae, 20 h, Kl. pneumoniae Y-4, penicillinase-producing; 10^6 cells per ml; read-out: MIC
From the text: as §1, §2

[3] = test system: St. aureus F-137*; settings: Staphylococcus aureus, 20 h
From the text: as §1, §2

[4] = test system: E. coli TK-3*; settings: Escherichia coli, 20 h, E. coli TK-3, penicillinase-producing; 10^6 cells per ml; read-out: MIC
From the text: as §1, §2

[5] = test system: Ps. aeruginosa GN918**; settings: Pseudomonas aeruginosa, Ps. aeruginosa GN918, cephalospolinase-producing, 10^6 cells per ml
From the text: as §1
(§3) ** Cephalospolinase-producing bacteria

[6] = test system: E. coli GN5482**; settings: Escherichia coli, 20 h; E. coli GN5482, cephalospolinase-producing; 10^6 cells per ml; read-out: MIC
From the text: as §1, §3

[7] = test system: Pro. vulgaris GN76**; settings: Proteus vulgaris
From the text: as §1, §3

[8] = test system: Pro. mirabilis T-111; settings: Proteus mirabilis, 37° C.
From the text: as §1

[9] = test system: Ps. aeruginosa S-68; settings: Pseudomonas aeruginosa, S68; Ps. aeruginosa S-68; 10^6 cells per ml; 37° C., 20 hours; read-out: MIC
From the text: as §1

[10] = test system: Pro. vulgaris GN3027; settings: Proteus vulgaris, GN3027, 20 h, Pro. vulgaris GN3027; 10^6 cells per ml; 37° C., 20 hours; read-out: MIC
From the text: as §1

[11] = test system: Pro. morganii T-216; settings: Morganella morganii, 37° C.
From the text: as §1

[12] = test system: St. aureus FDA209P; settings: Staphylococcus aureus, FDA209P, 20 h
From the text: as §1

[13] = test system: Ent. cloacae IID977; settings: Enterobacter cloacae, IID977, 20 h, Ent. cloacae IID977; 10^6 cells per ml; 37° C., 20 hours; read-out: MIC
From the text: as §1

[14] = test system: Ps. aeruginosa IFO3445; settings: Pseudomonas aeruginosa; Ps. aeruginosa IFO3445; 10^6 cells per ml; 37° C., 20 hours; read-out: MIC
From the text: as §1

[15] = test system: Kl. pneumoniae Y-50; settings: Klebsiella pneumoniae, Y50, 20 h, 10^6 cells per ml, 37° C., read-out: MIC
From the text: as §1

[16] = test system: Kl. pneumoniae Y-41; settings: Klebsiella pneumoniae, Y41, 10^6 cells per ml, 37° C., 20 hours, read-out: MIC
From the text: as §1

[17] = test system: E. coli TK-111; settings: Escherichia coli, TK111, 20 h, E. coli TK-111; 10^6 cells per ml; 37° C., 20 hours; read-out: MIC
From the text: as §1

[18] = test system: E. coli NIHJ JC-2; settings: Escherichia coli, NIHJJC2, 20 h
From the text: as §1

[19] = test system: Aci. antitratus A-6; settings: 20 h, Aci. antitratus A-6; 10^6 cells per ml; 37° C., 20 hours; read-out: MIC
From the text: as §1

[20] = St. aureus F-137, penicillinase-producing, 10^6 cells per ml, read-out: MIC
[21] = T216, 10^6 cells per ml, 20 hours, read-out: MIC
[22] = St. aureus FDA209P, 10^6 cells per ml, 37° C., 20 hours, read-out: MIC
[23] = E. coli NIHJ JC-2, 10^6 cells per ml, 37° C., 20 hours, read-out: MIC
[24] = 20 h, Pro. vulgaris GN76, cephalospolinase-producing, 10^6 cells per ml, read-out: MIC
[25] = T111, 10^6 cells per ml, 20 hours, read-out: MIC

| SMILES | MIC [1] | MIC [2] | MIC [3, 20] | MIC [4] | MIC ([5]; 20 h, read-out: MIC) | MIC [6] | MIC ([7]; GN76, 20 h) | MIC ([8]; T111, 20 h, 10^6 cells per ml) | MIC [9] | MIC [10] | MIC [11, 21] | MIC [12, 22] | MIC [13] | MIC [14] | MIC [15] | MIC [16] | MIC [17] | MIC [18, 23] | MIC [19] | MIC [7, 24] | other results |
| --- | --- | --- | --- | --- | --- | --- | --- | --- | --- | --- | --- | --- | --- | --- | --- | --- | --- | --- | --- | --- | --- |
| CN1CCOc2cc(-c3cc(=O)c(C(=O)O)cn3-c3ccc(O)cc3)ccc21 | 12.5 µg/mL (≈ 33 µM) | 3.13 µg/mL (≈ 8.27 µM) | 0.39 µg/mL (≈ 1.03 µM) | 0.78 µg/mL (≈ 2.06 µM) | 6.25 µg/mL (≈ 16.5 µM) | ≤ 0.05 µg/mL | 3.13 µg/mL (≈ 8.27 µM) | 3.13 µg/mL (≈ 8.27 µM) | 6.25 µg/mL (≈ 16.5 µM) | 0.39 µg/mL (≈ 1.03 µM) | 1.56 µg/mL (≈ 4.12 µM) | 0.39 µg/mL (≈ 1.03 µM) | 1.56 µg/mL (≈ 4.12 µM) | 12.5 µg/mL (≈ 33 µM) | 0.78 µg/mL (≈ 2.06 µM) | 3.13 µg/mL (≈ 8.27 µM) | 0.2 µg/mL (≈ 0.529 µM) | 0.39 µg/mL (≈ 1.03 µM) | 0.78 µg/mL (≈ 2.06 µM) | – | – |
| CN1CCOc2cc(-c3cc(=O)c(C(=O)O)cn3-c3ccc(O)cc3F)ccc21 | 12.5 µg/mL (≈ 31.5 µM) | 3.13 µg/mL (≈ 7.9 µM) | 0.2 µg/mL (≈ 0.505 µM) | 0.78 µg/mL (≈ 1.97 µM) | – | ≤ 0.05 µg/mL | 3.13 µg/mL (≈ 7.9 µM) | 3.13 µg/mL (≈ 7.9 µM) | 6.25 µg/mL (≈ 15.8 µM) | 0.39 µg/mL (≈ 0.984 µM) | 1.56 µg/mL (≈ 3.94 µM) | 0.39 µg/mL (≈ 0.984 µM) | 0.78 µg/mL (≈ 1.97 µM) | 6.25 µg/mL (≈ 15.8 µM) | 0.39 µg/mL (≈ 0.984 µM) | 3.13 µg/mL (≈ 7.9 µM) | 0.1 µg/mL (≈ 0.252 µM) | 0.39 µg/mL (≈ 0.984 µM) | 0.39 µg/mL (≈ 0.984 µM) | – | MIC ([5]; GN918, 20 h): 3.13 µg/mL (≈ 7.9 µM) |
| Cc1cc(O)ccc1-n1cc(C(=O)O)c(=O)cc1-c1ccc2c(c1)NCCN2C | 25 µg/mL (≈ 63.9 µM) | 6.25 µg/mL (≈ 16 µM) | 0.78 µg/mL (≈ 1.99 µM) | 0.78 µg/mL (≈ 1.99 µM) | – | 0.1 µg/mL (≈ 0.255 µM) | – | 3.13 µg/mL (≈ 8 µM) | 12.5 µg/mL (≈ 31.9 µM) | 0.78 µg/mL (≈ 1.99 µM) | – | 0.78 µg/mL (≈ 1.99 µM) | 1.56 µg/mL (≈ 3.99 µM) | 25 µg/mL (≈ 63.9 µM) | 0.39 µg/mL (≈ 0.996 µM) | 3.13 µg/mL (≈ 8 µM) | 0.2 µg/mL (≈ 0.511 µM) | 0.39 µg/mL (≈ 0.996 µM) | 1.56 µg/mL (≈ 3.99 µM) | 1.56 µg/mL (≈ 3.99 µM) | MIC ([5]; GN918, 20 h): 3.13 µg/mL (≈ 8 µM); MIC ([11]; T216, 20 h, 10^6 cells per ml): 3.13 µg/mL (≈ 8 µM) |
| Cc1cc(O)ccc1-n1cc(C(=O)O)c(=O)cc1C1CC=CCC1 (stereo not drawn) | 6.25 µg/mL (≈ 19.2 µM) | 1.56 µg/mL (≈ 4.79 µM) | 0.1 µg/mL (≈ 0.307 µM) | 0.78 µg/mL (≈ 2.4 µM) | 0.78 µg/mL (≈ 2.4 µM) | 0.1 µg/mL (≈ 0.307 µM) | – | 1.56 µg/mL (≈ 4.79 µM) | 6.25 µg/mL (≈ 19.2 µM) | ≤ 0.05 µg/mL | – | 0.2 µg/mL (≈ 0.615 µM) | 0.78 µg/mL (≈ 2.4 µM) | 6.25 µg/mL (≈ 19.2 µM) | 0.39 µg/mL (≈ 1.2 µM) | 1.56 µg/mL (≈ 4.79 µM) | 0.1 µg/mL (≈ 0.307 µM) | 0.39 µg/mL (≈ 1.2 µM) | 0.2 µg/mL (≈ 0.615 µM) | 0.39 µg/mL (≈ 1.2 µM) | MIC ([11]; T216, 20 h, 10^6 cells per ml): 1.56 µg/mL (≈ 4.79 µM) |
| O=C(O)c1cn(-c2ccc(O)cc2F)c(C2CC=CCC2)cc1=O (stereo not drawn) | 12.5 µg/mL (≈ 38 µM) | 6.25 µg/mL (≈ 19 µM) | 0.39 µg/mL (≈ 1.18 µM) | 3.13 µg/mL (≈ 9.5 µM) | 1.56 µg/mL (≈ 4.74 µM) | 0.39 µg/mL (≈ 1.18 µM) | – | – | 12.5 µg/mL (≈ 38 µM) | 0.1 µg/mL (≈ 0.304 µM) | 3.13 µg/mL (≈ 9.5 µM) | 0.39 µg/mL (≈ 1.18 µM) | 3.13 µg/mL (≈ 9.5 µM) | 12.5 µg/mL (≈ 38 µM) | 0.78 µg/mL (≈ 2.37 µM) | 6.25 µg/mL (≈ 19 µM) | 0.39 µg/mL (≈ 1.18 µM) | 1.56 µg/mL (≈ 4.74 µM) | 3.13 µg/mL (≈ 9.5 µM) | 0.78 µg/mL (≈ 2.37 µM) | MIC [8, 25]: 12.5 µg/mL (≈ 38 µM) |
| Cc1cc(O)ccc1-n1cc(C(=O)O)c(=O)cc1C1CC2C=CC1C2 (stereo not drawn) | > 100 µg/mL | 25 µg/mL (≈ 74.1 µM) | – | 12.5 µg/mL (≈ 37.1 µM) | 50 µg/mL (≈ 148 µM) | 1.56 µg/mL (≈ 4.62 µM) | – | – | > 100 µg/mL | 0.78 µg/mL (≈ 2.31 µM) | 12.5 µg/mL (≈ 37.1 µM) | – | 12.5 µg/mL (≈ 37.1 µM) | > 100 µg/mL | 3.13 µg/mL (≈ 9.28 µM) | 25 µg/mL (≈ 74.1 µM) | 1.56 µg/mL (≈ 4.62 µM) | – | 6.25 µg/mL (≈ 18.5 µM) | 6.25 µg/mL (≈ 18.5 µM) | MIC [3]: 3.13 µg/mL (≈ 9.28 µM); MIC [8, 25]: 25 µg/mL (≈ 74.1 µM); MIC [12]: 3.13 µg/mL (≈ 9.28 µM); MIC [18]: 3.13 µg/mL (≈ 9.28 µM) |
